Results as given in ChEMBL document CHEMBL2440076, “New triarylpyrazoles as broad-spectrum anticancer agents: design, synthesis, and biological evaluation” (Eur J Med Chem, 2013).

Tests used:
Format in all cases: functional
SF-539 = test: Growth inhibition of human SF539 cells assessed as cell growth at 3X10'-8 M after 48 hrs by sulforhodamine B assay; settings: SF-539, 48 h, read-out: Activity
UACC-62 = test: Growth inhibition of human UACC62 cells assessed as cell growth at 3X10'-5 M after 48 hrs by sulforhodamine B assay; settings: UACC-62, 48 h, read-out: Activity
KM12 [1] = test: Growth inhibition of human KM12 cells assessed as cell growth at 3X10'-9 M after 48 hrs by sulforhodamine B assay; settings: KM12, 48 h, read-out: Activity
SK-MEL-2 = test: Growth inhibition of human SK-MEL-2 cells assessed as cell growth at 3X10'-7 M after 48 hrs by sulforhodamine B assay; settings: SK-MEL-2, 48 h, read-out: Activity
BT-549 = test: Growth inhibition of human BT549 cells assessed as cell growth at 3X10'-7 M after 48 hrs by sulforhodamine B assay; settings: BT-549, 48 h, read-out: Activity
T47D = test: Growth inhibition of human T47D cells assessed as cell growth at 3X10'-9 M after 48 hrs by sulforhodamine B assay; settings: read-out: Activity
MDA-MB-231 [2] = test: Growth inhibition of human MDA-MB-231 cells assessed as cell growth at 3X10'-7 M after 48 hrs by sulforhodamine B assay; settings: MDA-MB-231, 48 h, read-out: Activity
MDA-MB-231 [3] = test: Growth inhibition of human MDA-MB-231 cells assessed as cell growth at 3X10'-5 M after 48 hrs by sulforhodamine B assay; settings: MDA-MB-231, 48 h, read-out: Activity
UO-31 = test: Growth inhibition of human UO31 cells assessed as cell growth at 3X10'-8 M after 48 hrs by sulforhodamine B assay; settings: UO-31, 48 h, read-out: Activity
M14 = test: Growth inhibition of human M14 cells assessed as cell growth at 3X10'-5 M after 48 hrs by sulforhodamine B assay; settings: M14, 48 h, read-out: Activity
SK-MEL-5 = test: Growth inhibition of human SK-MEL-5 cells assessed as cell growth at 3X10'-5 M after 48 hrs by sulforhodamine B assay; settings: SK-MEL-5, 48 h, read-out: Activity
NCI-H322M [4] = test: Growth inhibition of human NCI-H322M cells assessed as cell growth at 3X10'-8 M after 48 hrs by sulforhodamine B assay; settings: read-out: Activity
HT-29 = test: Growth inhibition of human HT-29 cells assessed as cell growth at 3X10'-6 M after 48 hrs by sulforhodamine B assay; settings: HT-29, 48 h, read-out: Activity
MDA-MB-435 = test: Growth inhibition of human MDA-MB-435 cells assessed as cell growth at 3X10'-5 M after 48 hrs by sulforhodamine B assay; settings: MDA-MB-435, 48 h, read-out: Activity
ACHN = test: Growth inhibition of human ACHN cells assessed as cell growth at 3X10'-9 M after 48 hrs by sulforhodamine B assay; settings: read-out: Activity
TK-10 [5] = test: Growth inhibition of human TK10 cells assessed as cell growth at 3X10'-6 M after 48 hrs by sulforhodamine B assay; settings: TK-10, 48 h, read-out: Activity
NCI-H460 = test: Growth inhibition of human NCI-H460 cells assessed as cell growth at 3X10'-6 M after 48 hrs by sulforhodamine B assay; settings: NCI-H460, 48 h, read-out: Activity
KM12 [6] = test: Growth inhibition of human KM12 cells assessed as cell growth at 3X10'-6 M after 48 hrs by sulforhodamine B assay; settings: KM12, 48 h, read-out: Activity
OVCAR-4 = test: Growth inhibition of human OVCAR4 cells assessed as cell growth at 3X10'-7 M after 48 hrs by sulforhodamine B assay; settings: OVCAR-4, 48 h, read-out: Activity
MCF7 = test: Growth inhibition of human MCF7 cells assessed as cell growth at 3X10'-5 M after 48 hrs by sulforhodamine B assay; settings: MCF7, 48 h, read-out: Activity
A549 = test: Growth inhibition of human A549/ATCC cells assessed as cell growth at 3X10'-8 M after 48 hrs by sulforhodamine B assay; settings: A549, 48 h, read-out: Activity
SK-MEL-28 = test: Growth inhibition of human SK-MEL-28 cells assessed as cell growth at 3X10'-6 M after 48 hrs by sulforhodamine B assay; settings: SK-MEL-28, 48 h, read-out: Activity
TK-10 [7] = test: Growth inhibition of human TK10 cells assessed as cell growth at 3X10'-8 M after 48 hrs by sulforhodamine B assay; settings: TK-10, 48 h, read-out: Activity
HOP-92 = test: Growth inhibition of human HOP92 cells assessed as cell growth at 3X10'-6 M after 48 hrs by sulforhodamine B assay; settings: HOP-92, 48 h, read-out: Activity
SR = test: Growth inhibition of human SR cells assessed as cell growth at 3X10'-8 M after 48 hrs by sulforhodamine B assay; settings: read-out: Activity
RPMI-8226 = test: Growth inhibition of human RPMI8226 cells assessed as cell growth at 3X10'-9 M after 48 hrs by sulforhodamine B assay; settings: RPMI-8226, 48 h, read-out: Activity
K562 = test: Growth inhibition of human K562 cells assessed as cell growth at 3X10'-9 M after 48 hrs by sulforhodamine B assay; settings: K562, 48 h, read-out: Activity
HCT-15 = test: Growth inhibition of human HCT15 cells assessed as cell growth at 3X10'-8 M after 48 hrs by sulforhodamine B assay; settings: HCT-15, 48 h, read-out: Activity
SW-620 = test: Growth inhibition of human SW620 cells assessed as cell growth at 3X10'-9 M after 48 hrs by sulforhodamine B assay; settings: SW-620, 48 h, read-out: Activity
COLO 205 = test: Growth inhibition of human COLO205 cells assessed as cell growth at 3X10'-6 M after 48 hrs by sulforhodamine B assay; settings: COLO 205, 48 h, read-out: Activity
NCI-H322M [8] = test: Growth inhibition of human NCI-H322M cells assessed as cell growth at 3X10'-5 M after 48 hrs by sulforhodamine B assay; settings: read-out: Activity
CCRF-CEM = test: Growth inhibition of human CCRF-CEM cells assessed as cell growth at 3X10'-5 M after 48 hrs by sulforhodamine B assay; settings: read-out: Activity
OVCAR-5 = test: Growth inhibition of human OVCAR5 cells assessed as cell growth at 3X10'-8 M after 48 hrs by sulforhodamine B assay; settings: OVCAR-5, 48 h, read-out: Activity
PC-3 = test: Growth inhibition of human PC3 cells assessed as cell growth at 3X10'-9 M after 48 hrs by sulforhodamine B assay; settings: PC-3, 48 h, read-out: Activity
SK-OV-3 = test: Growth inhibition of human SKOV3 cells assessed as cell growth at 3X10'-9 M after 48 hrs by sulforhodamine B assay; settings: SK-OV-3, 48 h, read-out: Activity

Compound	growth at 0.03 µM (SF-539) [%]	growth at 30 µM (UACC-62) [%]	growth at 0.003 µM (KM12 [1]) [%]	growth at 0.3 µM (SK-MEL-2) [%]	growth at 0.3 µM (BT-549) [%]	growth at 0.003 µM (T47D) [%]	growth at 0.3 µM (MDA-MB-231 [2]) [%]	growth at 30 µM (MDA-MB-231 [3]) [%]	growth at 0.03 µM (UO-31) [%]	growth at 30 µM (M14) [%]	growth at 30 µM (SK-MEL-5) [%]	growth at 0.03 µM (NCI-H322M [4]) [%]	growth at 3 µM (HT-29) [%]	growth at 30 µM (MDA-MB-435) [%]	growth at 0.003 µM (ACHN) [%]	growth at 3 µM (TK-10 [5]) [%]	growth at 3 µM (NCI-H460) [%]	growth at 3 µM (KM12 [6]) [%]	growth at 0.3 µM (OVCAR-4) [%]	growth at 30 µM (MCF7) [%]	also measured
COc1cc(-c2nn(-c3cccc(NC(=O)Nc4ccc(Cl)c(C(F)(F)F)c4)c3)cc2-c2ccncc2)ccc1Cl	93	-73	103	111	109	101	85	-76	89	-66	-94	93	10	-50	102	25	6	7	96	2	growth at 0.03 µM (A549): 94%; growth at 3 µM (SK-MEL-28): 16%; growth at 0.03 µM (TK-10 [7]): 102%; growth at 3 µM (HOP-92): -36%; growth at 0.03 µM (SR): 107%; growth at 0.003 µM (RPMI-8226): 102%; growth at 0.003 µM (K562): 110%; growth at 0.03 µM (HCT-15): 97%; growth at 0.003 µM (SW-620): 101%; growth at 3 µM (COLO 205): -49%; growth at 30 µM (NCI-H322M [8]): -17%; growth at 30 µM (CCRF-CEM): 2%; growth at 0.03 µM (OVCAR-5): 89%; growth at 0.003 µM (PC-3): 95%; growth at 0.003 µM (SK-OV-3): 105%
O=C(Nc1cccc(-n2cc(-c3ccncc3)c(-c3ccc(Cl)c(O)c3)n2)c1)Nc1cccc(C(F)(F)F)c1	100	-67	94	107	102	92	95	-5	85	-20	-90	95	96	-19	103	37	16	20	108	2	growth at 0.03 µM (A549): 100%; growth at 3 µM (SK-MEL-28): 55%; growth at 0.03 µM (TK-10 [7]): 98%; growth at 3 µM (HOP-92): -13%; growth at 0.03 µM (SR): 99%; growth at 0.003 µM (RPMI-8226): 99%; growth at 0.003 µM (K562): 94%; growth at 0.03 µM (HCT-15): 100%; growth at 0.003 µM (SW-620): 98%; growth at 3 µM (COLO 205): 90%; growth at 30 µM (NCI-H322M [8]): 19%; growth at 30 µM (CCRF-CEM): 7%; growth at 0.03 µM (OVCAR-5): 100%; growth at 0.003 µM (PC-3): 95%; growth at 0.003 µM (SK-OV-3): 98%
